{"source": "patent US11377451B2", "about": "“Compositions and methods for treating cancer” (The Regents of the University of California, priority 2019, dated 2022)", "key": {"[1]": {"test_system": "patient-derived GBM gliomaspheres", "assay": "Dynamic BH3 profiling (apoptotic priming, cytochrome c release)", "assay_type": "cell-based, human", "experimental": "GBM gliomaspheres were first disassociated to single-cell suspensions with TrypLE (Gibco) and resuspended in MEB buffer (150 mM Mannitol 10 mM HEPES-KOH, 50 mM KCl, 0.02 mM EGTA, 0.02 mM EDTA, 0.1% BSA, 5 mM Succinate). 50 μl of cell suspension (3×10^4 cells/well) were plated in wells holding 50 μL MEB buffer containing 0.002% digitonin and indicated peptides in 96-well plates. Plates were then incubated at 25° C. for 50 min. […] Samples were stained overnight with 20 μL of staining solution (10% BSA, 2% Tween 20 in PBS) containing DAPI and anti-cytochrome c (BioLegend). The following day, cytochrome c release was quantified using BD LSRII flow cytometer. […] Delta priming refers to the difference in amount of cytochrome c release between vehicle treated cells and drug treated cells."}, "[2]": {"test_system": "patient-derived GBM gliomaspheres", "assay": "Annexin V apoptosis assay", "assay_type": "cell-based, human", "conditions": "for synergy with nutlin treatment (annexin V): HK301 gliomaspheres, 72 hours, in combination with nutlin 2.5 μM; for apoptosis (annexin V staining): 72 hours of erlotinib exposure, 1 μM", "experimental": "Cells were collected and analyzed for Annexin V and PI staining according to manufacturer's protocol (BD Biosciences). Briefly, cells were plated at 5×10^4 cells/ml and treated with appropriate drugs. Following indicated time points, cells were collected, trypsinized, washed with PBS, and stained with Annexin V and PI for 15 minutes. Samples were then analyzed using the BD LSRII flow cytometer.\nAnnexin V staining was measured following 72 hrs of treatment. Using the Chalice software, the response of the combination was compared to its single agents. The combinatorial effects were calculated using the synergy score."}, "[3]": {"assay": "Pharmacokinetic / brain penetration studies in mice", "assay_type": "in vivo", "experimental": "Pharmacokinetic studies were performed on male CD-1 mice aged 8-10 weeks. Mice were dosed as indicated in duplicates. At the time points, whole blood was obtained by retro-orbital bleeding and brain tissue was harvested. Blood samples were centrifuged to obtain plasma and brain tissue was washed and homogenized. Samples were extracted with acetonitrile and supernatant was dried using a speed-vac. Dried samples were solubilized in 50:50:0.1 acetonitrile:water:formic acid and quantified on an Agilent 6400 series Triple Quadrupole LC/MS.\nDisclosed in table 5 Brain to plasma percentages and unbound ratios of drugs in brain to plasma of indicated drugs in non-tumor bearing mice"}, "[4]": {"test_system": "GBM39 and HK393 intracranial xenografts", "assay": "Intracranial delayed 18F-FDG PET/CT mouse imaging", "assay_type": "in vivo, mice", "experimental": "Following 1 hr unconscious uptake, mice were taken off anesthesia but kept warm for another 5 hr of uptake. 6 hr after the initial administration of ^18F-FDG, mice were imaged using G8 PET/CT scanner (Sofie Biosciences). Per above, quantification was performed by drawing 3D regions of interest (ROI) using the AMIDE software."}, "[5]": {"conditions": "cited from earlier work"}, "[6]": {"test_system": "BIM, PUMA; PI3K-AKT-mTOR signaling", "assay": "Immunoblotting", "assay_type": "cell-based, human", "experimental": "Cells were collected and lysed in RIPA buffer (Boston BioProducts) containing Halt Protease and Phosphatase Inhibitor (Thermo Fischer Scientific). Lysates were centrifuged at 14,000×g for 15 min at 4° C. […] Membranes were developed using the SuperSignal system (Thermo Fischer Scientific)."}, "[7]": {"test_system": "patient-derived GBM gliomaspheres", "assay": "18F-FDG uptake assay", "assay_type": "cell-based, human", "conditions": "4 hours", "experimental": "Cells were plated at 5×10^4 cells/ml and treated with designated drugs for indicated time points. Following appropriate treatment, cells were collected and resuspended in glucose-free DMEM/F12 (USBiological) containing ^18F-FDG (radioactivity 1 μCi/mL). Cells were incubated at 37° C. for 1 hr and then washed three times with ice cold PBS. Radioactivity of each sample was then measured using a gamma counter."}, "[8]": {"assay": "Protein binding (fraction unbound in blood and brain)"}, "HK301": {"test_system": "HK301", "assay": "GI50 assay (Cell Titer Glo proliferation, 3 days)", "assay_type": "cell-based, human", "conditions": "Homo sapiens, 72 h"}, "gliomas": {"test_system": "gliomas", "conditions": "cited from earlier work"}, "[9]": {"assay": "Idasanutlin brain and plasma concentrations by mass spectrometry", "assay_type": "in vivo", "conditions": "male, CD-1, mouse, mice with an intact blood-brain-barrier, 50 mg/kg oral gavage", "experimental": "Male CD-1 mice (6-8 weeks old) were treated with 50 mg/kg Idasanutlin in duplicate through oral gavage. At 0.5, 1, 2, 4, 6, 8, 12, and 24 hr after administration, mice were sacrificed, blood was harvested by retro-orbital bleeding, and brain tissue was collected. Whole blood from mice was centrifuged to isolate plasma. Idasanutlin was isolated by liquid-liquid extraction from plasma: 50 μL plasma was added to 2 μL internal standard and 100 μL acetonitrile. Mouse brain tissue was washed with 2 mL cold PBS and homogenized using a tissue homogenizer with fresh 2 mL cold PBS. Idasanutlin was then isolated and reconstituted in a similar manner by liquid-liquid extraction: 100 μL brain homogenate was added to 2 μL internal standard and 200 μL acetonitrile. After vortex mixing, the samples was centrifuged. The supernatant was removed and evaporated by a rotary evaporator and reconstituted in 100 μL 50:50 water: acetonitrile.\nChromatographic separations were performed on a 100×2.1 mm Phenomenex Kinetex C18 column (Kinetex) using the 1290 Infinity LC system (Agilent). The mobile phase was composed of solvent A: 0.1% formic acid in Milli-Q water, and B: 0.1% formic acid in acetonitrile. […] Analyte signal was normalized to the internal standard and concentrations were determined by comparison to the calibration curve (0.5, 5, 50, 250, 500, 2000 nM). […]"}, "p53": {"test_system": "p53", "assay": "Immunohistochemistry of p53 in orthotopic tumor-bearing mice", "assay_type": "in vivo", "conditions": "50 mg/kg, 36 hours", "experimental": "Immunohistochemistry was performed on 4 μm sections that were cut from FFPE (formalin-fixed, paraffin-embedded) blocks. Sections were then deparaffinised with xylene and rehydrated through graded ethanol. […] Tissue sections were then treated with 3% hydrogen peroxide (LOT 161509; Fisher Chemical) and with Background Sniper (Biocare Medical, Concord, Calif., USA) to reduce nonspecific background staining. Primary antibody for p53 (Cell Signaling, 2527) was applied in a 1:150 dilution for 80 min followed by detection with the MACH 3 Rabbit HRP-Polymer Detection kit (Biocare Medical). Visualization was achieved using VECTOR NovaRED (SK-4800; Vector Laboratories, Inc.) as chromogen. Lastly, sections were counterstained with Tacha's Automated Hematoxylin (Biocare Medical)."}, "EGFR": {"molecular_target": "T1, EGFR (Homo sapiens, UniProt P00533)", "T1 construct": "purchased Promega V3831", "T1 sequence (P00533 25-1210)": "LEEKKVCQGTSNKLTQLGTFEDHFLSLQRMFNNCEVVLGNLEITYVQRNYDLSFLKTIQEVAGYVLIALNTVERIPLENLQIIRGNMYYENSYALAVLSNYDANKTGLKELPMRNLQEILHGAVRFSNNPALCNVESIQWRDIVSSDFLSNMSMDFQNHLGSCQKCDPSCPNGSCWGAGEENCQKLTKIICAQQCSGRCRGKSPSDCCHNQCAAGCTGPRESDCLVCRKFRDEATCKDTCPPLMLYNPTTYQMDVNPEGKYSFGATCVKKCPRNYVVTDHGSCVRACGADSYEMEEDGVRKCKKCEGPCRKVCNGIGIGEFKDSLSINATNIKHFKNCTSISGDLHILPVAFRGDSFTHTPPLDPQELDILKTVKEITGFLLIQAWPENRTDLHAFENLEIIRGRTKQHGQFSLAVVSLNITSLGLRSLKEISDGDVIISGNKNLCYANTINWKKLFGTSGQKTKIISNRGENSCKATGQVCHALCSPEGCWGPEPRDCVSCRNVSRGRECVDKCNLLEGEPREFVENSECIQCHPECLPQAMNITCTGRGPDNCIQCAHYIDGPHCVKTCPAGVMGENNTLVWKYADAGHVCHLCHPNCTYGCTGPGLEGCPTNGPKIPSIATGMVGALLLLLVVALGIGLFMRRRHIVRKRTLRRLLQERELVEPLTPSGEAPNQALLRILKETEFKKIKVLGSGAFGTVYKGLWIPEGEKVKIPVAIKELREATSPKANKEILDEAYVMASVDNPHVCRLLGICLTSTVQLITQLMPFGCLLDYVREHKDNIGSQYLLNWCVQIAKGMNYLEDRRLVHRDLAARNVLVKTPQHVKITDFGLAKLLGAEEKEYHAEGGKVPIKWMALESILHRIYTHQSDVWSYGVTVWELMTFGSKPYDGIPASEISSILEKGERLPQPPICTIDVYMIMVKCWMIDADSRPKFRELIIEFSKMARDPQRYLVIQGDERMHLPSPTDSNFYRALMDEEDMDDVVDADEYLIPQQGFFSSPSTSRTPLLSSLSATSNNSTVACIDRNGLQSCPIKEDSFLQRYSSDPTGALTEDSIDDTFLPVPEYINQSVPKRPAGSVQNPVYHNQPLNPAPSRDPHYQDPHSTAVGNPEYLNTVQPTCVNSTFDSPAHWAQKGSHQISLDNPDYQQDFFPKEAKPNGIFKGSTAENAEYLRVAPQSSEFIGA", "assay": "Cell Free EGFR Kinase Assay (ADP-Glo)", "assay_type": "biochemical", "conditions": "FIG. 3", "experimental": "The Cell Free EGFR Kinase Assay was performed using the EGFR Kinase System (Promega #V3831). […] The ADP-Glo Kinase Assay (Promega #V6930) was used to measure EGFR activity in the presence of inhibitors."}, "GBM39": {"test_system": "GBM39", "assay": "GI50 assay (Cell Titer Glo proliferation, 3 days)", "assay_type": "cell-based, human", "conditions": "Homo sapiens, 72 h; GBM39, 3 days"}, "[10]": {"conditions": "HK393 and HK254 (EGFRi non-responders), 24 hours"}, "[11]": {"conditions": "male, CD-1, mouse, Table 4, unbound partition coefficient of the brain and plasma, at equilibrium"}, "[12]": {"conditions": "higher dose: Erlotinib 1500 (weekly), Gefitinib 750-1000"}}, "note": "Where two headings read alike, the source gives them in different places."}
{"compound": "O=CC[C@@H](O)[C@H](O)[C@H](O)CO", "note": "[2DG, 2-deoxyglucose]", "values": [{"measurement": "apoptotic priming", "setting": "[1]; HK301 (EGFRi metabolic responder), 2DG", "value": "stimulated apoptotic priming"}, {"measurement": "apoptotic priming", "setting": "[1]; [10]", "value": "completely mirrored these effects"}, {"measurement": "lethality in combination with nutlin", "setting": "[2]; EGFRi non-responder cells (HK393, HK254), combined with nutlin", "value": "significant, p53-dependent synergistic lethality"}, {"measurement": "synergy with p53 activation (nutlin), cell death by annexin V", "setting": "[2]; FIG. 37A, gliomasphere samples treated for 72 hours, combination with nutlin", "value": "unexpectedly synergizes with p53 activation"}, {"measurement": "synergy with nutlin treatment (annexin V)", "setting": "[2]", "value": "synergy with nutlin"}]}
{"compound": "COc1cc2ncnc(Nc3cccc(Cl)c3F)c2cc1OC(=O)N1CCN(C)C[C@H]1C", "note": "[AZD3759]", "values": [{"measurement": "fraction unbound", "setting": "in vitro; Fu (blood)", "value": 0.052}, {"measurement": "fraction unbound", "setting": "in vitro; Fu (brain)", "value": 0.0144}, {"measurement": "Kp uu", "setting": "[3]; [11]", "value": 0.802}]}
{"compound": "C#Cc1cccc(Nc2ncnc3cc(OCCOC)c(OCCOC)cc23)c1", "note": "[Erlotinib, erlotinib]", "values": [{"measurement": "18F-FDG uptake (PET)", "setting": "[4]; GBM39 orthotopic xenografts, erlotinib 75 mg/kg, 15 hours post administration", "value": "rapidly reduced"}, {"measurement": "18F-FDG uptake (PET)", "setting": "[4]; HK393 orthotopic xenografts (non-metabolic responder), acute EGFRi", "value": "no changes"}, {"measurement": "CSF", "setting": "[5]; Daily Dose: Afatinib 50, Alectinib 1200, Crizotinib 500, Erlotinib 150, Gefitinib 250, Lapatinib 1250", "value": "28.7 ± 16.8", "unit": "ng/mL"}, {"measurement": "Plasma", "setting": "[5]; Daily Dose: Afatinib 50, Crizotinib 500, Erlotinib 150, Gefitinib 250, Lapatinib 1250", "value": "1140 ± 937", "unit": "ng/mL"}, {"measurement": "CSF", "setting": "[5]; [12]", "value": 51.1, "unit": "ng/mL"}, {"measurement": "Plasma", "setting": "[5]; [12]", "value": 4445.9, "unit": "ng/mL"}, {"measurement": "expression of pro-apoptotic BH3-only proteins BIM and PUMA", "setting": "[6]; only in the metabolic responder cultures, acute erlotinib treatment", "value": "promoted the expression"}, {"measurement": "Kpuu (Avg)", "setting": "[3]; Table 4, unbound partition coefficient of the brain and plasma, at equilibrium", "value": 0.0513}, {"measurement": "Kpuu (Avg)", "setting": "[3]; Table 5, unbound ratios of drugs in brain to plasma, non-tumor bearing mice", "value": 0.051}, {"measurement": "radio-labeled glucose uptake (18F-FDG)", "setting": "[7]; metabolic responder GBMs, erlotinib 1 μM", "value": "significantly attenuated"}, {"measurement": "Bound (blood)", "setting": "[8]; blood", "value": 95.12, "unit": "%"}, {"measurement": "fraction unbound", "setting": "[8]; blood, Fu (blood)", "value": 0.0488}, {"measurement": "Bound (brain)", "setting": "[8]; brain", "value": 97.07, "unit": "%"}, {"measurement": "fraction unbound", "setting": "[8]; brain, Fu (brain)", "value": 0.0293}, {"measurement": "GI50", "setting": "HK301; read-out: HK301 GI50 (nM)", "value": 642, "unit": "nM"}, {"measurement": "response rates against gliomas", "setting": "gliomas", "value": "≤ 25", "unit": "%"}, {"measurement": "apoptosis (annexin V staining)", "setting": "[2]; metabolic responders", "value": "~17", "unit": "%"}, {"measurement": "apoptosis (annexin V staining)", "setting": "[2]; non-responders", "value": "~3", "unit": "%"}]}
{"compound": "COc1cc(C(=O)O)ccc1NC(=O)[C@@H]1N[C@@H](CC(C)(C)C)[C@](C#N)(c2ccc(Cl)cc2F)[C@H]1c1cccc(Cl)c1F", "note": "[Idasanutlin]", "values": [{"measurement": "Kp", "setting": "[9]", "value": 0.35}, {"measurement": "p53 stabilization in tumor", "setting": "p53", "value": "stabilizes p53"}]}
{"compound": "Fc1c(Cl)cccc1Nc1ncnc2cc3c(cc12)OCCO3", "note": "[JGK010]", "values": [{"measurement": "IC50", "setting": "EGFR", "value": "~8", "unit": "nM"}, {"measurement": "Kp", "setting": "[3]; male, CD-1, mouse, brain / plasma, non-tumor bearing mice", "value": 1.06}, {"measurement": "Kp uu", "setting": "[3]; [11]", "value": 1.04}, {"measurement": "Bound (blood)", "setting": "[8]; blood", "value": 98.88, "unit": "%"}, {"measurement": "fraction unbound", "setting": "[8]; blood, Fu (blood)", "value": 0.0112}, {"measurement": "Bound (brain)", "setting": "[8]; brain", "value": 98.90, "unit": "%"}, {"measurement": "fraction unbound", "setting": "[8]; brain, Fu (brain)", "value": 0.011}, {"measurement": "GI50", "setting": "HK301; HK301, 3 days, read-out: HK301 GI50", "value": 780, "unit": "nM"}, {"measurement": "GI50", "setting": "GBM39", "value": 2590, "unit": "nM"}]}
{"compound": "CS(=O)(=O)N1CCN(Cc2cc3nc(-c4cccc5[nH]ncc45)nc(N4CCOCC4)c3s2)CC1", "note": "[pictilisib]", "values": [{"measurement": "PI3K-AKT-mTOR signaling", "setting": "[6]; HK254 and HK393, 4 hours", "value": "abrogated PI3K-AKT-mTOR signaling"}, {"measurement": "18F-FDG uptake", "setting": "[7]; HK393 and HK254 (EGFRi non-responders), pictilisib 1 μM", "value": "significantly reduced"}, {"measurement": "apoptotic priming", "setting": "[1]; [10]", "value": "significantly higher apoptotic priming"}, {"measurement": "lethality in combination with nutlin", "setting": "[2]", "value": "significant, p53-dependent synergistic lethality"}]}
{"compound": "NS(=O)(=O)C#Cc1ccccc1", "note": "[pifithrin-μ]", "values": [{"measurement": "effect on priming with erlotinib", "setting": "[1]; HK301, PFTμ pre-treatment 10 μM for 2 hours, erlotinib 24 hours", "value": "markedly reduced priming with erlotinib"}]}
{"compound": "C=C(C)[C@H]1Cc2c(ccc3c2O[C@@H]2COc4cc(OC)c(OC)cc4[C@@H]2C3=O)O1", "note": "[rotenone]", "values": [{"measurement": "synergy with nutlin treatment (annexin V)", "setting": "[2]", "value": "did not synergize with nutlin"}]}
